In paper PMC8534050, “Discovery of a Potent and Highly Isoform-Selective Inhibitor of the Neglected Ribosomal Protein S6 Kinase Beta 2 (S6K2)” (Cancers, 2021):
Like-named read-outs stand apart in the source and are kept apart here.

Columns and labels:
[1] = Nα-acetyl lysine stability assay (HPLC); assay type: physicochemical; conditions: for half-life: read-out: half-life t1/2 towards Nα-acetyl lysine (converted)
Protocol: The Nα-acetyl lysine stability assay was performed in analogy to the GSH stability assay by substituting GSH with Nα-acetyl lysine at pH 7.4 and additionally at pH 10.2 to mimic the pKa depression often observed for biologically relevant lysines. PBS-buffer was substituted with a sodium tetraborate buffer (28 mM) for experiments at pH 10.2.
4. Nα-Acetyl Lysine Stability Assay […]
h. The stability towards Nα-acetyl lysine at pH 10.2 was corrected for the slope of the curve of the […]
Figure S11. Nα-acetyl lysine stability assay of compound 2 at pH 7.4 and pH 10.2. Error bars represent the standard deviation of triplicate measurements. AUC: area under the curve of residual starting material 2, t: time in hours.

CDC42BPA = target: T1, CDC42BPA (Homo sapiens, UniProt Q5VT25); assay: DSF thermal shift assay; assay type: binding; conditions: CDC42BPA; inhibitor 10 μM, protein 2 μM; read-out: ΔTm
T1 construct: purchased in-house DSF (thermal shift) panel per Fedorov et al
Protocol: (§1) Differences in the melting temperature (ΔTm) were measured as described by Fedorov et al.. Purified proteins were buffered in 25 mM HEPES (pH 7.5), 500 mM NaCl and were assayed in a 384-well plate with a final protein concentration of 2 μM in 10 μL assay volume. Inhibitors were added to a final concentration of 10 μM using an ECHO 550 acoustic dispenser (Labcyte, San José, CA, USA). As a fluorescence probe, SYPRO-Orange (Molecular Probes, Eugene, OR, USA) was added in a 1:5000 dilution. Filters for excitation and emission were set to 465 nm and 590 nm, respectively. The temperature was increased from 25 °C with 3 °C/min to a final temperature of 95 °C, while scanning, using the QuantStudio5 (Applied Biosystems, Waltham, MA, USA). Data were analyzed through Boltzmann equation in the Protein Thermal Shift software (Applied Biosystems, Waltham, MA, USA). Samples were measured in technical duplicates.

WNK1 = target: T2, WNK1 (Homo sapiens, UniProt Q9H4A3); assay: DSF thermal shift assay; assay type: binding; conditions: WNK1; inhibitor 10 μM, protein 2 μM; read-out: ΔTm
T2 construct: purchased in-house DSF (thermal shift) panel per Fedorov et al
Protocol: as §1

EPHB3 = target: T3, EPHB3 (Homo sapiens, UniProt P54753); assay: DSF thermal shift assay; assay type: binding; conditions: EPHB3; inhibitor 10 μM, protein 2 μM; read-out: ΔTm
T3 construct: purchased in-house DSF (thermal shift) panel per Fedorov et al
Protocol: as §1

STK39 = target: T4, STK39 (Homo sapiens, UniProt Q9UEW8); assay: DSF thermal shift assay; assay type: binding; conditions: STK39; inhibitor 10 μM, protein 2 μM; read-out: ΔTm
T4 construct: purchased in-house DSF (thermal shift) panel per Fedorov et al; IC50 follow-up at Reaction Biology Corp
Protocol: as §1

PLK4 = target: T5, PLK4 (Homo sapiens, UniProt O00444); assay: DSF thermal shift assay; assay type: binding; conditions: PLK4; inhibitor 10 μM, protein 2 μM; read-out: ΔTm
T5 construct: purchased in-house DSF (thermal shift) panel per Fedorov et al
Protocol: as §1

RPS6K5 = target: T6, RPS6K5 (Homo sapiens, UniProt O75582); assay: DSF thermal shift assay; assay type: binding; conditions: RPS6K5; inhibitor 10 μM, protein 2 μM; read-out: ΔTm
T6 construct: purchased in-house DSF (thermal shift) panel per Fedorov et al
Protocol: as §1

SLK = target: T7, SLK (Homo sapiens, UniProt Q9H2G2); assay: DSF thermal shift assay; assay type: binding; conditions: SLK; inhibitor 10 μM, protein 2 μM; read-out: ΔTm
T7 construct: purchased in-house DSF (thermal shift) panel per Fedorov et al
T7 sequence (Q9H2G2 whole entry): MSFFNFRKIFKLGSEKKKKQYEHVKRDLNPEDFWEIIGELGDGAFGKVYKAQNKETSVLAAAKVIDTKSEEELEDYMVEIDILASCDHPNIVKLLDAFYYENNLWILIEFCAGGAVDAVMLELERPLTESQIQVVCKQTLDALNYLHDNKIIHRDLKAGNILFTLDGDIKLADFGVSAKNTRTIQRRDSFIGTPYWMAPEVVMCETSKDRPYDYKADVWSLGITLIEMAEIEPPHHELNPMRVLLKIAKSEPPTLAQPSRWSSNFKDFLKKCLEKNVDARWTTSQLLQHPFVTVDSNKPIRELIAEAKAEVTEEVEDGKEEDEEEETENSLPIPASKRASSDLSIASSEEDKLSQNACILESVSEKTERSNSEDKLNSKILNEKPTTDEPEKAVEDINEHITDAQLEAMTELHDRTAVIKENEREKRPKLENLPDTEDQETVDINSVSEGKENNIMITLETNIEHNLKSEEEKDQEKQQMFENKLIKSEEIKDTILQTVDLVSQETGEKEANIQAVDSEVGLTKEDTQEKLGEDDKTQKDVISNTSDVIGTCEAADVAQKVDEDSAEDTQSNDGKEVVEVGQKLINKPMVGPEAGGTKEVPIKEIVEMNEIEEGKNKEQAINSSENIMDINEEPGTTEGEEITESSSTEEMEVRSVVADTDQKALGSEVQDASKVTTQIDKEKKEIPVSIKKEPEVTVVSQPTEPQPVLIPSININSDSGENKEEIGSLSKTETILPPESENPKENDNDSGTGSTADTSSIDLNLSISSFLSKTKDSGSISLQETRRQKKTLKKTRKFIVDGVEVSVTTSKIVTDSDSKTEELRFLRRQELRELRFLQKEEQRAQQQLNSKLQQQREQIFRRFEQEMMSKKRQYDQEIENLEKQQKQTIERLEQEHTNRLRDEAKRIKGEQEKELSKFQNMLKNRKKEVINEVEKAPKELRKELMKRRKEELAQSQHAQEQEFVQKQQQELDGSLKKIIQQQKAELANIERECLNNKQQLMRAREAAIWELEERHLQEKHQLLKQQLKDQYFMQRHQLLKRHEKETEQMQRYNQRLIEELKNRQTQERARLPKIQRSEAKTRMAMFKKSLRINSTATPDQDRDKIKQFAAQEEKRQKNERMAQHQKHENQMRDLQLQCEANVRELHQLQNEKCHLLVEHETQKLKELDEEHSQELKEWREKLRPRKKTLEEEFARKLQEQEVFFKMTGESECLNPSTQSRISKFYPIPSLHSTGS
Protocol: as §1

CAMKK2 = target: T8, CAMKK2 (Homo sapiens, UniProt Q96RR4); assay: DSF thermal shift assay; assay type: binding; conditions: CAMKK2; inhibitor 10 μM, protein 2 μM; read-out: ΔTm
T8 construct: purchased in-house DSF (thermal shift) panel per Fedorov et al
T8 sequence (Q96RR4 whole entry): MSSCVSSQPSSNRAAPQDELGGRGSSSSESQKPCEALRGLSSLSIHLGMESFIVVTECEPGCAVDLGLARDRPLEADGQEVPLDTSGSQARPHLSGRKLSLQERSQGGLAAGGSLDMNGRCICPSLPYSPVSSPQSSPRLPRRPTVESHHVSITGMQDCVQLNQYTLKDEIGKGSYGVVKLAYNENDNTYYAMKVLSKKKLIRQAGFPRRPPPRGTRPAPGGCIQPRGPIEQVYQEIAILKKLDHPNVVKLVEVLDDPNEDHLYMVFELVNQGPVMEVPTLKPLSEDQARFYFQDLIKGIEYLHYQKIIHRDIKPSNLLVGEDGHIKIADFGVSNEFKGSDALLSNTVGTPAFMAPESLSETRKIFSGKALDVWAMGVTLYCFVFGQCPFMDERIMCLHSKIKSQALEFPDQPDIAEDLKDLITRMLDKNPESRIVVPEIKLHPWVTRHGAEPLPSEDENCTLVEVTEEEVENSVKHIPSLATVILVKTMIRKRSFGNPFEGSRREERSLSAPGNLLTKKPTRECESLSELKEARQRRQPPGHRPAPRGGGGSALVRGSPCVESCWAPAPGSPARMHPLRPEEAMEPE
Protocol: as §1

EPHA7 = target: T9, EPHA7 (Homo sapiens, UniProt Q15375); assay: DSF thermal shift assay; assay type: binding; conditions: EPHA7; inhibitor 10 μM, protein 2 μM; read-out: ΔTm
T9 construct: purchased in-house DSF (thermal shift) panel per Fedorov et al
T9 sequence (Q15375 28-998): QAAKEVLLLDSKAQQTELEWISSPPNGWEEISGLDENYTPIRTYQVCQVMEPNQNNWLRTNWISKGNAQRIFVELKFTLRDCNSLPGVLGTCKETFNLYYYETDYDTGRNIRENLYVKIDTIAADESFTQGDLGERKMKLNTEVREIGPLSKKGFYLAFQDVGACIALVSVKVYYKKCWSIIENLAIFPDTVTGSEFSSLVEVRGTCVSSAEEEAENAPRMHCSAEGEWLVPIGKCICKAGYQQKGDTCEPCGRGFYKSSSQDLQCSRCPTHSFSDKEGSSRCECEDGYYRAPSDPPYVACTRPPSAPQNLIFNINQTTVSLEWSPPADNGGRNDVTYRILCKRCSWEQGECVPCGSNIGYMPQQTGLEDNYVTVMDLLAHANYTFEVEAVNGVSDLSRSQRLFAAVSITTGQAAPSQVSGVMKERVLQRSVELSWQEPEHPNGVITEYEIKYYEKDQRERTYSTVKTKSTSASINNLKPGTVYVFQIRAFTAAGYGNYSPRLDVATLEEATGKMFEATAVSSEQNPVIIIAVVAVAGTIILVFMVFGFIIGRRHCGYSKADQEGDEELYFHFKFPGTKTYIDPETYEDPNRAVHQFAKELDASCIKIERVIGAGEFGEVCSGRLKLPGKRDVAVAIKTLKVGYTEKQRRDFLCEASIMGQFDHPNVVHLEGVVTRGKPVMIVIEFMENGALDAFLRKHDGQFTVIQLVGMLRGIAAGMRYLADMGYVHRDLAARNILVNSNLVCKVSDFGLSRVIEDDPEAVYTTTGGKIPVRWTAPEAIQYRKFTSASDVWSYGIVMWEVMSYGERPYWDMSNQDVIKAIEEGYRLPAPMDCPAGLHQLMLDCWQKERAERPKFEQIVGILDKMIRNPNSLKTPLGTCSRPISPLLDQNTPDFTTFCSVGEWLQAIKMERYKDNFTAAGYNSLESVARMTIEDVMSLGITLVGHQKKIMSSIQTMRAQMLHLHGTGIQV
Protocol: as §1

STK3 = target: T10, STK3 (Homo sapiens, UniProt Q13188); assay: DSF thermal shift assay; assay type: binding; conditions: STK3; inhibitor 10 μM, protein 2 μM; read-out: ΔTm
T10 construct: purchased in-house DSF (thermal shift) panel per Fedorov et al
T10 sequence (Q13188 whole entry): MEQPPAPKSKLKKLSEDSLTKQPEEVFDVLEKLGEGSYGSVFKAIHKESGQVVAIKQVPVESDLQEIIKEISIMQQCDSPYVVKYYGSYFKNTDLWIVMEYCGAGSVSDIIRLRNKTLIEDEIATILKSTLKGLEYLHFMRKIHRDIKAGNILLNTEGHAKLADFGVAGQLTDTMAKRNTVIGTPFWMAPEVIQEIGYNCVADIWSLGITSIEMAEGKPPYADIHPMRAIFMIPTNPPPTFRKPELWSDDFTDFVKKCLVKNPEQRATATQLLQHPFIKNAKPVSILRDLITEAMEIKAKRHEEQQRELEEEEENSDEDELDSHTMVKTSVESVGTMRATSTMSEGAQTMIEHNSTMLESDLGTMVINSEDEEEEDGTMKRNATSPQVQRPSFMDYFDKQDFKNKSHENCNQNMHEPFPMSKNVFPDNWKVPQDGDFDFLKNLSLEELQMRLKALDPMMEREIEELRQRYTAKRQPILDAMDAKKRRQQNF
Protocol: as §1

PAK1 = target: T11, PAK1 (Homo sapiens, UniProt Q13153); assay: DSF thermal shift assay; assay type: binding; conditions: PAK1; inhibitor 10 μM, protein 2 μM; read-out: ΔTm
T11 construct: purchased in-house DSF (thermal shift) panel per Fedorov et al
T11 sequence (Q13153 whole entry): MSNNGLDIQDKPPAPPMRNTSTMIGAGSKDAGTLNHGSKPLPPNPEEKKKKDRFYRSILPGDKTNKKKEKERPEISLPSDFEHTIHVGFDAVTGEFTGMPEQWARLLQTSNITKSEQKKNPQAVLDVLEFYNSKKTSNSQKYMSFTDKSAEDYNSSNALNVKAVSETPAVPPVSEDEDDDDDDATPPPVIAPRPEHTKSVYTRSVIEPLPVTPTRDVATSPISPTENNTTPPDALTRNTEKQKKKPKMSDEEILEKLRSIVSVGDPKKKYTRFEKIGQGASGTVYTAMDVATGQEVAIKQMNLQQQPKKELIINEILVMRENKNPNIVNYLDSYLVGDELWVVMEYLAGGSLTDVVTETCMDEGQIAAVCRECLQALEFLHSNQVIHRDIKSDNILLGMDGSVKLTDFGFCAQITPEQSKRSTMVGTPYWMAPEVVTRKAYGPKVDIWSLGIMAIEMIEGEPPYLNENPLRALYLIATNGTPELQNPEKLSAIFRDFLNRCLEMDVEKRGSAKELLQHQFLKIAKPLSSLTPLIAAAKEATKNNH
Protocol: as §1

CAMK4 = target: T12, CAMK4 (Homo sapiens, UniProt Q16566); assay: DSF thermal shift assay; assay type: binding; conditions: CAMK4; inhibitor 10 μM, protein 2 μM; read-out: ΔTm
T12 construct: purchased in-house DSF (thermal shift) panel per Fedorov et al
T12 sequence (Q16566 whole entry): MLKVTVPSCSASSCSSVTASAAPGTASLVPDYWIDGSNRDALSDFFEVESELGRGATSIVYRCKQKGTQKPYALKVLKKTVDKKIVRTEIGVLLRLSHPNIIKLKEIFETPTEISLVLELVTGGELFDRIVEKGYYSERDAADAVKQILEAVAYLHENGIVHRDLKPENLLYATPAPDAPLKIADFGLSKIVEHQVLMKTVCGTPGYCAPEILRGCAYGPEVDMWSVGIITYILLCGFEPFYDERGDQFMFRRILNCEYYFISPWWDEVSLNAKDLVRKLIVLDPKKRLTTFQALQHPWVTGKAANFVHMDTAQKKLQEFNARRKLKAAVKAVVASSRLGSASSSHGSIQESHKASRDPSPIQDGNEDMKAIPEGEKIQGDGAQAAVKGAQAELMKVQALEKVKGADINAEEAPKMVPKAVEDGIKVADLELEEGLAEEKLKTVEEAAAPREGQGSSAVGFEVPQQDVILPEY
Protocol: as §1

MAPK13 = target: T13, MAPK13 (Homo sapiens, UniProt O15264); assay: DSF thermal shift assay; assay type: binding; conditions: MAPK13; inhibitor 10 μM, protein 2 μM; read-out: ΔTm
T13 construct: purchased in-house DSF (thermal shift) panel per Fedorov et al
T13 sequence (O15264 whole entry): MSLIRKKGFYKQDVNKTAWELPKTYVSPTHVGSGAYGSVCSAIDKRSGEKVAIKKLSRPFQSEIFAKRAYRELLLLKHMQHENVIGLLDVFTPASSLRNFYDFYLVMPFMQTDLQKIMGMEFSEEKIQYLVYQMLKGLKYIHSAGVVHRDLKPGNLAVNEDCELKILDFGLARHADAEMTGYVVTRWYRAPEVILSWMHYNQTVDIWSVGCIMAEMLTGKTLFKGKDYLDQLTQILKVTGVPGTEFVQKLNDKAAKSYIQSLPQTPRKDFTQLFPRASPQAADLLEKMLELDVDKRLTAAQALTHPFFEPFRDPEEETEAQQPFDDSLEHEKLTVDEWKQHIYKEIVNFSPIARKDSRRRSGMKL
Protocol: as §1

Microsomal stability = assay type: in vitro ADME, mouse; conditions: 100 μM, NADPH-regenerating system, up to 90 min
Protocol: Pooled liver microsomes from mice (male) were purchased from XenoTech LLC (Sekisui XenoTech LLC, Kansas City, KS, USA). Incubation of compound 2 was made in the presence of an NADPH-regenerating system (5 mM glucose-6-phosphate, 5 U/mL glucose-6-phosphate dehydrogenase, and 1 mM NADP^+). Compound 2 (100 μM), the NADPH-regenerating system, and 4 mM MgCl2⋅6 H2O in 0.1 M Tris buffer (pH 7.4) were preincubated for 5 min at 37 °C and 750 rpm on a shaker. The incubation mix was split into aliquots (50 μL) and the reaction was started by the addition of mouse liver microsomes. The reaction was quenched at selected time points (0, 10, 20, 30, 60, and 90 min) by adding 100 μL internal standard at a concentration of 50 μM in MeCN. The samples were vortexed for 30 s and centrifuged (19,800 relative centrifugal force/4 °C/15 min). The supernatant was directly used for LC-MS analysis. All incubations were conducted in triplicates and a limit of 1% organic solvent was not exceeded. […]
Detection was performed on a Micromass Quattro micro triple quadrupole mass spectrometer (Waters GmbH, Eschborn, Germany) using electrospray ionization in positive mode. […] The data were analyzed using MassLynx 4.1 (Waters Corporation, Milford, MA, USA)

With `CCc1cnc(Nc2nc(Cl)ccc2[N+](=O)[O-])nc1N1CCN(Cc2nc3cc(C(F)(F)F)ccc3[nH]2)CC1` [Compound 2] the half-life ([1]; Nα-acetyl lysine in MeCN/PBS buffer, pH 7.4) was 48.1 days, the half-life ([1]; Nα-acetyl lysine in sodium tetraborate buffer (28 mM), pH 10.2, corrected for aqueous degradation) was 1.12 days and the “reactivity towards Nα-acetyl lysine” value ([1]; physiological pH) was “negligible reactivity”. For the same molecule, the ΔTm at 10 µM (CDC42BPA) was 0.3 °C, the ΔTm at 10 µM (WNK1) was -0.9 °C and the ΔTm at 10 µM (EPHB3) was -0.9 °C. The ΔTm at 10 µM (STK39) was 0.6 °C, the ΔTm at 10 µM (PLK4) was 0.2 °C and the ΔTm at 10 µM (RPS6K5) was 1.5 °C. For the same molecule, the ΔTm at 10 µM (SLK) was 1.9 °C, the ΔTm at 10 µM (CAMKK2) was 0.6 °C and the ΔTm at 10 µM (EPHA7) was 0.5 °C. The ΔTm at 10 µM (STK3) was -0.2 °C, the ΔTm at 10 µM (PAK1) was -0.5 °C and the ΔTm at 10 µM (CAMK4) was 0.1 °C. The ΔTm at 10 µM (MAPK13) was -0.6 °C and the “stability in mouse liver microsomes” value (Microsomal stability) was “acceptable stability”.
